Entries after “also recorded” stand apart in the source; their conditions may differ.
Assays:
[1] = target: genotype 1b 4BAH2 (Hepatitis C virus genotype 1b, UniProt Q9WMX2); assay: DLS assay of 4BAH2-induced POPC lipid vesicle aggregation, genotype 1b peptide; assay type: biochemical; set-up: purchased Anaspec Corporation (San Jose, Calif., USA); host or cells: chemical synthesis; details: POPC vesicles
Description: Dynamic light scattering. Dynamic light scattering was performed by a 90Plus particle size analyzer, and the results were analyzed by digital autocorrelator software (Brookhaven Instruments Corporation, New York). All measurements were taken at a scattering angle of 90°, where the reflection effect is minimized. Dynamic light scattering (DLS) is a well established technique for measuring particle size over the size range from a few nanometers to a few microns. The concept uses the idea that small particles in a suspension move in a random pattern, i.e., Brownian motion. When a coherent source of light (such as a laser) having a known frequency is directed at the moving particles, the light is scattered at a different frequency. The shift in light frequency is related to the size of the particles causing the shift. Due to their higher average velocity, smaller particles cause a greater shift in the light frequency than larger particles. […]
Dynamic Light Scattering. Dynamic light scattering (DLS) was performed using a doubled, Nd:YAG laser (model 532 DPSS, Coherent Laser Group, Santa Clara, Calif.) with a wavelength, λ, of […] and a Brookhaven digital autocorrelator, and analyzed by digital autocorrelator software (Brookhaven Instruments Corporation, New York, USA). […] DLS results were analyzed to give an intensity-weighted size distribution using a discrete Laplace inversion routine. […]

[2] = test system: subgenomic genotype 1b replicon RNA (Bart79ILuc); assay: Transient genotype 1b subgenomic replicon (Bart79I-luc) luciferase replication assay in Huh7.5 cells; assay type: cell-based, Hepatitis C Virus genotype 1b; details: luciferase at 72 hr of treatment
From the text: Plasmids. Bart79I, a high-efficiency subgenomic replicon of HCV (28), harbors the neomycin resistance gene (neo) and the HCV nonstructural proteins. The Bart-Luciferase plasmid, Bart79I-luc, was cloned from the Bart791 parent (29) and the pGL3-Basic parent (Promega). In brief, a NotI site was introduced after the 15th amino acid of Core in Bart791 using PCR mutagenesis. The plasmid pcDNA3.1-NS4B, which encodes the Con1 NS4B sequence and was used to study the protein stability of the wild type and mutant NS4Bs, was described previously. […]
Transient Replication Assays. […] Firefly luciferase activities were measured at 8, 48, 96, and 144 hr post electroporation by using a firefly luciferase kit from Promega (Madison, Wis.).
Antiviral Assays of Compounds. […] Plates were then scanned and fluorescence was detected by using a FLEXstation II 384 (Molecular Devices). […] Viral RNA replication was determined using Renilla (FL-J6/JFH-5′C19Rluc2AUbi) or firefly (Bart791-luc) luciferase assays, according to the manufacturer's (Promega) directions. The same samples subjected to the viability assay described below were analyzed in this assay. […] Luminescence was measured over 10 seconds with a 2-second delay using a Berthold LB 96 V luminometer. […]

Sequence of genotype 1b 4BAH2 (Q9WMX2 1754-1776): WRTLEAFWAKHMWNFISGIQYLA

SMILES: CC(C)CN(C)c1nc(N)c(C(=O)NC(=N)N)nc1Cl [C4, 3-amino-N-carbamimidoyl-6-chloro-5-(isobutyl(methyl)amino)pyrazine-2-carboxamide]
- Inhibition of genotype 1b 4BAH2-mediated vesicle aggregation (DLS) [1]: inhibited genotype 1b 4BAH2-mediated vesicle aggregation
- Inhibition of HCV genotype 1b genome replication [2]: inhibits HCV replication; also recorded: dose-dependent inhibition

— patent publication US20110217265A1, “Screening for Inhibitors of HCV Amphipathic Helix (AH) Function” (priority 2008, published 2011)
